Assay results taken from ChEMBL document CHEMBL1201862, “PubChem BioAssay data set” (2004).
Activity calls are given as the source filed them.

Tests used:
[1] = bead-based luminescence quenchers, dual-tagged ARNT – biochemical, AlphaScreen, cherry-pick, artefact control for ARNT-TACC3 interaction inhibitor project, dose response (AID 651705); assay type: functional;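 note: AlphaScreen bead proximity signal that flags compounds interfering with the detection technology; potency reflects signal decrease which marks the compound as an assay artifact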
[2] = luciferase reporter signal suppression in cells – H4 neuroglioma cells, luminescence, dose response (AID 1990); assay type: functional, cell-based
HEK293 [3] = test: inhibition of NOD1-driven NF-kB reporter – cell-based, luminescence, uHTS, primary screen (AID 1578); assay type: functional; conditions: Homo sapiens
HEK293 [4] = test: cells; assay type: functional, cell-based; conditions: Homo sapiens
[5] = Luminescence Cell-Based Dose Response HTS to Identify Inhibitors of 5'UTR Stem-Loop Driven Prion Protein mRNA Translation in H4 Neuroglioblastoma Cells. [Related pubchem assays: 1827 (Project Summary), 1813 (Primary HTS)]; assay type: functional
[6] = alpha-synuclein stem-loop luciferase translation blockers – H4 neuroglioma cells, luminescence, confirmation (AID 1988); assay type: functional, cell-based
HEK293 [7] = test: cells; assay type: functional, cell-based; conditions: Homo sapiens; remark: listed apart in the source
HEK293 [8] = test: NOD2 signaling inhibitors in MDP-stimulated cells, cell-based, uHTS, luminescence (AID 2001); assay type: functional; conditions: Homo sapiens
[9] = Trypanosoma cruzi growth suppression in host cells – NIH3T3 host cells, beta-gal luminescence, confirmation (AID 2044); assay type: functional, cell-based;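 note: intracellular parasites grown in NIH/3T3 mouse fibroblasts as host cells; luminescent beta-galactosidase reporter signal from transgenic T. cruzi replicating inside host cells; inhibitors lower the luminescence signal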
[10] = viability of PTEN-deleted HCT116 cells – cell-based, HCT116 PTEN knockout, dose response (AID 1047); assay type: functional;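 note: HCT116 colon tumor cells with PTEN knocked out; cells exposed to compound for 60 hours before readout; potency for loss of cell viability measured by luminescence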
[11] = NIH3T3 cell viability loss – ATP luminescence, mouse fibroblasts, counter-screen, dose response (AID 2010); assay type: functional, cell-based;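 note: cells exposed to compound for about 90 hours before reading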
[12] = viability of HCT116 lacking mutant beta-catenin – cell-based, human colon tumor, dose response (AID 1045); assay type: functional;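 note: HCT116 colon tumor cells with beta catenin knocked out; cells exposed to compound for 60 hours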
[13] = Luminescence Cell-Based Dose Retest to Confirm Inhibitors of Cancer Stem Cells. [Related pubchem assays (depositor defined):AID2717, AID2721]; assay type: functional; conditions: Homo sapiens
INS1 = test: INS-1E survival protection against cytokine death – cell-based, luminescence, retest, dose response (AID 449756); assay type: functional; conditions: Rattus norvegicus;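 note: cell death triggered by IL-1 beta plus TNF-alpha plus IFN-gamma mixture; protective hits raise ATP signal compared with cytokine alone wells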
[14] = reduction of Shn3 3'UTR-driven luciferase in osteoblasts – cell-based, Clone20 osteoblasts, firefly luciferase, cherry-picked, dose response (AID 624132); assay type: functional;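 note: firefly luciferase luminescence from reporter carrying the Shn3 3'UTR in osteoblasts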
[15] = loss of viability in HepG2 cells – cell-based, CellTiter-Glo, cherry-picked, cytotoxicity control for Shn3 inhibitor project, dose response (AID 624134); assay type: functional
[16] = non-specific 3'UTR reporter inhibition in Clone20-Shn3RL – cell-based, Renilla luciferase, cherry-picked, counter-screen for Shn3 inhibitor project, dose response (AID 624133); assay type: functional
[17] = target: Photoreceptor-specific nuclear receptor (Homo sapiens, UniProt Q9Y5X4); assay type: functional, cell-based;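 note: CHO-S cells with Gal4-NCOR and VP16-NR2E3 two-hybrid luciferase reporter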
[18] = blockers of HIV-1 envelope-mediated cell-cell fusion – cherry-pick, dose response (AID 652057); assay type: functional, cell-based
[19] = viability loss in CEM21 cells – cell-based, CellTiter-Glo luminescence, cherry-picked, cytotoxicity control for viral fusion inhibitor project, dose response (AID 652042); assay type: functional;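 note: potency for signal decrease meaning cytotoxicity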
[20] = off-target signal loss in HeLa-CEM21 co-culture – HeLa F-luc CTL cells, cherry-picked, counter-screen for HIV-1 Env fusion inhibitor project, dose response (AID 652040); assay type: functional, cell-based;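 note: potency for signal decrease marking cytotoxic or nonspecific inhibition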
[21] = general mammalian cell viability loss – inhibitor set, cherry-pick, set 2, cytotoxicity control for miR-122 modulator project, dose response (AID 720697); assay type: functional, cell-based
[22] = general mammalian cell viability loss – activator set, cherry-pick, cytotoxicity control for miR-122 modulator project, dose response (AID 720690); assay type: functional, cell-based;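 note: HEK293T human cells scored for general mammalian cytotoxicity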
Major prion protein = Major prion protein (Homo sapiens, UniProt P04156); assay type: functional, cell-based
[23] = HGIII-sPLA2 enzyme inhibition potency – biochemical, QFRET, IC50, dose response (AID 743457);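 note: green fluorescence rise as the enzyme cleaves BODIPY PC-A2 in liposomes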
[24] = tested on: Streptococcus sp. 'group A'; test: Streptococcus pyogenes SK(-)GAS viability under kanamycin – luminescence, BacTiterGlo, confirmation, counter-screen for streptokinase expression inhibitor project, dose response (AID 1900); assay type: functional, organism-based
Streptococcus = test: GAS UMAA2166 growth inhibition – luminescence, BacTiterGlo, counter-screen for streptokinase expression inhibitor project, dose response (AID 1915); assay type: functional, organism-based;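 note: potency for reduction of bacterial viability or growth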

With `O=C(CSc1ccc2nnc(-c3ccccn3)n2n1)NCc1ccco1` the AC50 [1] was 99 µM (active).

With `CCN(CC)S(=O)(=O)c1ccc(NC(=O)Nc2cccc(C(F)(F)F)c2)cc1` the EC50 [2] was > 120 µM (not active), the EC50 (HEK293 [3]) was > 20 µM (inactive) and the IC50 (HEK293 [4]) was 3.14 µM (active). The EC50 [5] was 14.9 µM (active), the EC50 [6] was 11.1 µM (active) and the IC50 (HEK293 [7]) was 8.73 µM (active). For the same compound, the IC50 (HEK293 [8]) was 4.48 µM (inactive), the EC50 [9] was 1.67 µM (active) and the EC50 [10] was 4.56 µM (active). The EC50 [11] was > 60 µM (not active), the EC50 [12] was 6.35 µM (active) and the AC50 [13] was 2.13 µM (active). The AC50 (INS1) was 4.6 µM (active), the AC50 [14] was 5.6 µM (active) and the AC50 [15] was 27.6 µM (active). The AC50 [16] was 10.8 µM (active), the IC50 [17] was 6.94 µM (active) and the AC50 [18] was 9.67 µM (active). For the same compound, the AC50 [19] was 13.6 µM (active), the AC50 [20] was 10.3 µM (active) and the AC50 [21] was 9.71 µM (active). The AC50 [22] was 5.75 µM (active).

For `Brc1cc(Br)c2nc3c(cc2c1)CCC3`, the IC50 (Major prion protein) was 5.89 µM (active) and the IC50 (cells) was > 138 µM (inactive).

For `CCn1c(S)nnc1-c1csc(C(C)C)c1`, the IC50 [23] was > 122 µM (inactive).

In the case of `O=C(Cc1ccccc1)NNC(=S)NC(=O)c1cccs1`, the EC50 [24] is reported as 3.33 µM (active), the EC50 (Streptococcus) is reported as 7.51 µM (active) and the IC50 [23] is reported as > 122 µM (inactive).
